Results reported in article PMC4587093 (Biochimica et biophysica acta, 2015).

Legend:
CYP1D1 = biological target: T1, CYP1D1 (Danio rerio, UniProt A0ACM8Q602); format: biochemical
T1 sequence (A0ACM8Q602 1-512): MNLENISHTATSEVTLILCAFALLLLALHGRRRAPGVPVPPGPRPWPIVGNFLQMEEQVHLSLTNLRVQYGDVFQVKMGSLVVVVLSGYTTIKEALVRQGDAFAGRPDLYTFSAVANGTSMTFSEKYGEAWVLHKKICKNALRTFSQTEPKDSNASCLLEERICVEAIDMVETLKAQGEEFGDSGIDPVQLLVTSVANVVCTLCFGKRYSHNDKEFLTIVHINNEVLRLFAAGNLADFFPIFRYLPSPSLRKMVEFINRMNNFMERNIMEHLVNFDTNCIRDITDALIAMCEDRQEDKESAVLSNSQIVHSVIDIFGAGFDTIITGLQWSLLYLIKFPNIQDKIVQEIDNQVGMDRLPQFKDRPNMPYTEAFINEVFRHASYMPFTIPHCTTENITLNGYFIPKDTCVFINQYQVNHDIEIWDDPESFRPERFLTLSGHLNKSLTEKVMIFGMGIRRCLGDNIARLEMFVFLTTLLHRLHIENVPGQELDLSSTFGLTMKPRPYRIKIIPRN

CYP1C2 = biological target: T2, CYP1C2 (Danio rerio, UniProt A0AC58HLV5); format: biochemical
T2 sequence (A0AC58HLV5 1-514): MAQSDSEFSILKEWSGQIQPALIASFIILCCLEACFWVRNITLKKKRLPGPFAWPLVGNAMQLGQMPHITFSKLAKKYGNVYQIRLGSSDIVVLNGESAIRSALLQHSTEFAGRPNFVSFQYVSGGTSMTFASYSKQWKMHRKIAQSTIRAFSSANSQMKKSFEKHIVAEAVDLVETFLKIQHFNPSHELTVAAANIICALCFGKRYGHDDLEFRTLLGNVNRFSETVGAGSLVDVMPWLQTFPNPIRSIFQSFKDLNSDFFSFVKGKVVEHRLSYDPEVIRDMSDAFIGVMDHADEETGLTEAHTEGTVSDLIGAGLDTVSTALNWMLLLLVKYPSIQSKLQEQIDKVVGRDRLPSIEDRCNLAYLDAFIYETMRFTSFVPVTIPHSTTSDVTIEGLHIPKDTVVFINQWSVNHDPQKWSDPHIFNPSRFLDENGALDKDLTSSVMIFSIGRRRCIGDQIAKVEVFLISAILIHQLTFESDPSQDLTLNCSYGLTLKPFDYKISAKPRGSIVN
T2 sequence (P16603 2-691 partner): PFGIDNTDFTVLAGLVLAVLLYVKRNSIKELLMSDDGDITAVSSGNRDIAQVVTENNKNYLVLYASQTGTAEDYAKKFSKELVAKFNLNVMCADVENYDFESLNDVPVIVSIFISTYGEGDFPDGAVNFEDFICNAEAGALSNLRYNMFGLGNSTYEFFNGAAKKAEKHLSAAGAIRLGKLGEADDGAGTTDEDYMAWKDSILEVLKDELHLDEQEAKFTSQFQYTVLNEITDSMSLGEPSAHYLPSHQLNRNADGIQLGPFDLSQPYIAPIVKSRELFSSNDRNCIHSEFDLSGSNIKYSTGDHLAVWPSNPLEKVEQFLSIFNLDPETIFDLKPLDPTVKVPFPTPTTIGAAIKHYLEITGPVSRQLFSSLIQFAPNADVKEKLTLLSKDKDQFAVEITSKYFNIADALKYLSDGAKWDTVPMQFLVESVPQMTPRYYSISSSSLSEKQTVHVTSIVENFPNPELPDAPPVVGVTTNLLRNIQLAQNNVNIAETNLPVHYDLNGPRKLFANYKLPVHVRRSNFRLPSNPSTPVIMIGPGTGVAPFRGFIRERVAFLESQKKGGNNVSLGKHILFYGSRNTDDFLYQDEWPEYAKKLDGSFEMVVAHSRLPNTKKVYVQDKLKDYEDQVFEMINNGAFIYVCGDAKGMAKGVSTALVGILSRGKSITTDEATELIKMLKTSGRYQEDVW

CYP1C1 [1] = biological target: T3, CYP1C1 (Danio rerio, UniProt A0PJ31); format: biochemical
T3 sequence (A0PJ31 1-523): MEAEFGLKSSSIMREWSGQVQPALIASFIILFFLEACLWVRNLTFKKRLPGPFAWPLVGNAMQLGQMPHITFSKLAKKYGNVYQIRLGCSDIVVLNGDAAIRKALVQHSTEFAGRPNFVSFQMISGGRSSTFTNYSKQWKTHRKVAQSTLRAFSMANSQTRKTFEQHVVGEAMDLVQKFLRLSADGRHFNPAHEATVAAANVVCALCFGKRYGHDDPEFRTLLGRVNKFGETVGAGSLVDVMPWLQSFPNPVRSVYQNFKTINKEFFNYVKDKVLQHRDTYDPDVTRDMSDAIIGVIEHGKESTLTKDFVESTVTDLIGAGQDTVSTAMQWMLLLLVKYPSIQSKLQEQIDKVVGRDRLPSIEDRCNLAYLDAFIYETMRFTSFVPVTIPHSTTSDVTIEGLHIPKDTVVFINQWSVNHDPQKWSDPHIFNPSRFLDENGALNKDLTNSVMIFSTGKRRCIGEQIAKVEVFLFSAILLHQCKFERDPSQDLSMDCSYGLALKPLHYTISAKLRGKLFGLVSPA

CYP1C1 [2] = biological target: T3, CYP1C1; format: cell-based
CYP1A = biological target: T4, CYP1A (Danio rerio, UniProt A0A8M1PCF4); experiment: O-deethylation rate; format: cell-based
T4 sequence (A0A8M1PCF4 1-519): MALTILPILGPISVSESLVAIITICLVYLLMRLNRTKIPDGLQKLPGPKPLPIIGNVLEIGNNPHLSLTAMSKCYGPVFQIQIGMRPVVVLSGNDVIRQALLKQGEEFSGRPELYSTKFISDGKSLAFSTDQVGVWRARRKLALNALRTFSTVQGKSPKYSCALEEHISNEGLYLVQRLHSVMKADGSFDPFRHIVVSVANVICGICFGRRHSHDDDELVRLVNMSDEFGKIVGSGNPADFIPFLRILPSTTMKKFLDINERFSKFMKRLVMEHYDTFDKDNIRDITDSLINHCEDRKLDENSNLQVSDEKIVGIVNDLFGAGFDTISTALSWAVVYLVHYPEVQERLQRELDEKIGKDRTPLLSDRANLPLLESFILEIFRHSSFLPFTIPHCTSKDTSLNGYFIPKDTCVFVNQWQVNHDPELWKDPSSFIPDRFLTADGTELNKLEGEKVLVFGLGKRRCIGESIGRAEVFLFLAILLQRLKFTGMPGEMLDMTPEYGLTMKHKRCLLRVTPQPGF

CYP1C1 [3] = biological target: T3, CYP1C1; experiment: kcat for O-demethylation; format: cell-based
Km for O-deethylation = substrate: CCOc1ccc2nc3ccc(=O)cc-3oc2c1; experiment: Km for O-deethylation; format: biochemical, Danio rerio; settings: heme; NADPH

c1ccc2c(c1)cc1ccc3cccc4ccc2c1c34 [BaP, benzo[a]pyrene]
Ki (CYP1D1): 12000 nM | Ki (CYP1C2): 200 nM | Ki (CYP1C1 [1]): 60 nM

CCOc1ccc2c(C(F)(F)F)cc(=O)oc2c1 [EFC, 7-ethoxy-4-trifluoromethyl-coumarin]
kcat (mol substrate oxidized/mol P450/min) ^a / EFC ^c, ^d (CYP1C1 [2]): 1.51 ± 0.14 mol substrate oxidized/mol P450/min

CCOc1ccc2nc3ccc(=O)cc-3oc2c1 [ER, 7-ethoxyresorufin]
CYP expressed via pYES/DEST52 ^a / 1A (CYP1A): 89.3 ± 1.9 pmol min^−1 mg^−1 microsomal protein

COc1ccc2nc3ccc(=O)cc-3oc2c1 [MR, 7-methoxyresorufin]
kcat (mol substrate oxidized/mol P450/min) ^b / MR (CYP1C1 [3]): 4.9 ± 0.6 mol substrate oxidized/mol P450/min

B1: CYP1C2 (Danio rerio) (protein)
chain: MAQSDSEFSILKEWSGQIQPALIASFIILCCLEACFWVRNITLKKKRLPGPFAWPLVGNAMQLGQMPHITFSKLAKKYGNVYQIRLGSSDIVVLNGESAIRSALLQHSTEFAGRPNFVSFQYVSGGTSMTFASYSKQWKMHRKIAQSTIRAFSSANSQMKKSFEKHIVAEAVDLVETFLKIQHFNPSHELTVAAANIICALCFGKRYGHDDLEFRTLLGNVNRFSETVGAGSLVDVMPWLQTFPNPIRSIFQSFKDLNSDFFSFVKGKVVEHRLSYDPEVIRDMSDAFIGVMDHADEETGLTEAHTEGTVSDLIGAGLDTVSTALNWMLLLLVKYPSIQSKLQEQIDKVVGRDRLPSIEDRCNLAYLDAFIYETMRFTSFVPVTIPHSTTSDVTIEGLHIPKDTVVFINQWSVNHDPQKWSDPHIFNPSRFLDENGALDKDLTSSVMIFSIGRRRCIGDQIAKVEVFLISAILIHQLTFESDPSQDLTLNCSYGLTLKPFDYKISAKPRGSIVN
Km (Km for O-deethylation): 0.11 ± 0.01 µM

B2: CYP1C1 (Danio rerio) (protein)
chain: MEAEFGLKSSSIMREWSGQVQPALIASFIILFFLEACLWVRNLTFKKRLPGPFAWPLVGNAMQLGQMPHITFSKLAKKYGNVYQIRLGCSDIVVLNGDAAIRKALVQHSTEFAGRPNFVSFQMISGGRSSTFTNYSKQWKTHRKVAQSTLRAFSMANSQTRKTFEQHVVGEAMDLVQKFLRLSADGRHFNPAHEATVAAANVVCALCFGKRYGHDDPEFRTLLGRVNKFGETVGAGSLVDVMPWLQSFPNPVRSVYQNFKTINKEFFNYVKDKVLQHRDTYDPDVTRDMSDAIIGVIEHGKESTLTKDFVESTVTDLIGAGQDTVSTAMQWMLLLLVKYPSIQSKLQEQIDKVVGRDRLPSIEDRCNLAYLDAFIYETMRFTSFVPVTIPHSTTSDVTIEGLHIPKDTVVFINQWSVNHDPQKWSDPHIFNPSRFLDENGALNKDLTNSVMIFSTGKRRCIGEQIAKVEVFLFSAILLHQCKFERDPSQDLSMDCSYGLALKPLHYTISAKLRGKLFGLVSPA
Km (Km for O-deethylation): 0.085 ± 0.005 µM
